Source: patent US4000261A, “5-Epi-4,6-di-O-(aminoglycosyl)-2-deoxystreptamines, methods for their manufacture and intermediates useful therein, methods for their use as antibacterial agents and compositions useful therefor” (priority 1975, dated 1976)
≈ marks a conversion by molar mass, not a printed value. Like-named read-outs stand apart in the source and are kept apart here.

How the values were obtained:
Format in all cases: cell-based
[1] = tested on: gram-positive and gram-negative bacteria; assay: antibacterial spectrum and relative activity in vitro; conditions: for antibacterial spectrum in vitro: compared with gentamicin C1, C1a and C2
[2] = tested on: gram positive bacteria (e.g. Staphylococcus aureus) and gram negative bacteria (e.g. Escherichia coli and Pseudomonas aeruginosa); assay: antibacterial activity determined by standard dilution tests; conditions: including bacteria resistant to the parent compounds
[3] = tested on: Bacillus subtilis 663; assay: in vitro minimal inhibitory concentration (MIC), standard tube dilution method; conditions: strain 663, Mueller-Hinton broth
Excerpt: (§1) In Table 1, set forth below is shown the in vitro minimal inhibitory concentration (MIC) of gentamicin C2a against representative gram-positive and gram-negative bacteria. The results are derived using the standard tube dilution method in Mueller-Hinton broth.
(§2) In Table 2, set forth below is shown the in vitro minimal inhibitory concentration (MIC) of gentamicin C2b against representative gram-positive and gram-negative bacteria. The results are derived using the standard tube dilution method in Mueller-Hinton broth.

[4] = tested on: Escherichia coli; assay: as above
Excerpt: as §1, §2

[5] = tested on: Klebsiella pneumoniae; assay: as above
Excerpt: as §1, §2

[6] = tested on: Pseudomonas aeruginosa; assay: as above
Excerpt: as §1, §2

[7] = tested on: Salmonella typhi. B.; assay: as above; conditions: Salmonella enterica
Excerpt: as §1, §2

[8] = tested on: Staphylococcus aureus; assay: as above; conditions: Mueller-Hinton broth
Excerpt: as §1, §2

[9] = ATCC10536, strain ATCC 10536, Mueller-Hinton broth
[10] = strain JR66, gentamicin resistant, Mueller-Hinton broth
[11] = strain LA 290/R55, gentamicin resistant, Mueller-Hinton broth
[12] = strain 17, Mueller-Hinton broth, read-out: MIC
[13] = strain 20, Mueller-Hinton broth
[14] = strain 762, Mueller-Hinton broth
[15] = strain 3223, Mueller-Hinton broth
[16] = strain St 138, gentamicin resistant, Mueller-Hinton broth
[17] = strain Travers, gentamicin resistant, Mueller-Hinton broth

SMILES	MIC [3] [µg/mL]	MIC [4, 9] [µg/mL]	MIC [4, 10] [µg/mL]	MIC [4, 11] [µg/mL]	MIC [5, 12] [µg/mL]	MIC [6, 13] [µg/mL]	MIC [6, 14] [µg/mL]	MIC [6, 15] [µg/mL]	MIC [6, 16] [µg/mL]	MIC [6, 17] [µg/mL]	MIC [7] [µg/mL]	MIC ([8]; strain 59N) [µg/mL]	MIC ([8]; strain Ziegler) [µg/mL]	antibacterial spectrum in vitro [1]	further results
CCN[C@@H]1C[C@H](N)[C@@H](O[C@H]2OC(CN)=CC[C@H]2N)[C@@H](O)[C@H]1O[C@H]1OC[C@](C)(O)[C@H](NC)[C@H]1O [1-N-ethyl-5-episisomicin]	–	–	–	–	–	–	–	–	–	–	–	–	–	–	antibacterial activity / spectrum ([1]; general statement, some compared with parent antibiotics): enhanced antibacterial activity
CN[C@@H]1[C@@H](O)[C@@H](O[C@@H]2[C@H](O)[C@H](O[C@H]3OC(CN)=CC[C@H]3N)[C@@H](N)C[C@H]2N)OC[C@@H]1O [5-epi-Antibiotic 66-40D]	–	–	–	–	–	–	–	–	–	–	–	–	–	–	antibacterial activity in standard dilution tests [2]: active against gram positive bacteria (e.g. Staphylococcus aureus) and gram negative bacteria (e.g. Escherichia coli and Pseudomonas aeruginosa)
CN[C@@H]1[C@@H](O)[C@@H](O[C@@H]2[C@@H](O)[C@H](O[C@H]3O[C@H]([C@H](C)N)CC[C@H]3N)[C@@H](N)C[C@H]2N)OC[C@]1(C)O [gentamicin C2a]	0.1 (≈ 0.216 µM)	0.3 (≈ 0.647 µM)	7.5 (≈ 16.2 µM)	17.5 (≈ 37.8 µM)	0.8 (≈ 1.73 µM)	3 (≈ 6.47 µM)	0.8 (≈ 1.73 µM)	0.3 (≈ 0.647 µM)	> 25	> 25	0.3 (≈ 0.647 µM)	0.3 (≈ 0.647 µM)	0.3 (≈ 0.647 µM)	substantially the same antibacterial spectrum in vitro as do gentamicin C1, C1a and C2	MIC [5]: 17.5 µg/mL (≈ 37.8 µM); MIC ([8]; Staphylococcus aureus, strain 6538P, read-out: MIC): 0.3 µg/mL (≈ 0.647 µM); activity relative to the gentamicin C complex ([1]; as the free base, % of the activity of the gentamicin C complex): about 74%
CNC[C@@H]1CC[C@@H](N)[C@@H](O[C@H]2[C@H](O)[C@@H](O[C@H]3OC[C@](C)(O)[C@H](NC)[C@H]3O)[C@H](N)C[C@@H]2N)O1 [gentamicin C2b]	< 0.05	0.075 (≈ 0.162 µM)	7.5 (≈ 16.2 µM)	> 25	0.075 (≈ 0.162 µM)	0.3 (≈ 0.647 µM)	0.3 (≈ 0.647 µM)	0.075 (≈ 0.162 µM)	17.5 (≈ 37.8 µM)	> 25	0.3 (≈ 0.647 µM)	0.075 (≈ 0.162 µM)	0.075 (≈ 0.162 µM)	substantially the same antibacterial spectrum in vitro as do gentamicin C1, C1a and C2	MIC ([5]; strain 3694, gentamicin resistant, Mueller-Hinton broth, read-out: MIC): 17.5 µg/mL (≈ 37.8 µM); MIC ([8]; Staphylococcus aureus, strain wood, read-out: MIC): 0.075 µg/mL (≈ 0.162 µM)
